In the NIST ThermoML archive (doi:10.1016/j.fluid.2015.03.025):

Assay: xn = mol fraction of the nth substance listed
Conditions: 101 kPa, Liquid; for mass density: Buoyancy - hydrostatic balance; for electrical conductivity: Alternating current cell with electrodes; for viscosity: Capillary tube (Ostwald / Ubbelohde) method

C[N+](C)(C)CCO.[Cl-] [choline chloride] + OCCO
x1 = 0.5
Conditions	electrical conductivity [S/m]	mass density [kg/m3]	viscosity [mPa·s]
301.55 K	–	1048.21	–
303.04 K	0.838	–	–
307.95 K	–	1046.1	–
308.15 K	0.917	–	–
312.74 K	0.986	–	–
313.15 K	–	1044.28	25.3
317.51 K	1.054	–	–
317.55 K	–	1042.81	–
318.15 K	–	–	21.7
322.85 K	–	1041.05	–
323.15 K	1.123	–	18.3
327.35 K	–	1039.36	–
328.15 K	1.186	–	16.3
333.15 K	1.264	–	14.4
333.25 K	–	1036.72	–
338.15 K	–	1034.68	12.4
343.15 K	1.414	–	10.5
347.85 K	–	1030.78	–
348.15 K	–	–	9.6
353.15 K	1.519	1028.98	8.7

O=C(O)C(=O)O [ethanedioic acid] + C[N+](C)(C)CCO.[Cl-]
x2 = 0.5
Conditions	electrical conductivity [S/m]	mass density [kg/m3]	viscosity [mPa·s]
300.15 K	–	1160.6	–
303.05 K	0.483	–	–
303.15 K	–	–	119.4
304.15 K	–	1158.66	–
308.15 K	0.56	–	101.1
312.75 K	0.638	1153.06	–
313.15 K	–	–	82.7
317.55 K	0.727	–	–
318.15 K	–	1150.57	60.2
323.15 K	0.808	1148.23	43.7
328.15 K	0.886	–	37
328.65 K	–	1146.23	–
333.15 K	0.981	–	31.9
334.15 K	–	1142.66	–
343.15 K	1.144	1137.16	20.1
348.15 K	–	–	16.8
348.65 K	–	1135.11	–
353.15 K	1.288	1133.19	14.3

OCCN(CCO)CCO [triethanolamine] + C[N+](C)(C)CCO.[Cl-]
x2 = 0.5
Conditions	electrical conductivity [S/m]	mass density [kg/m3]	viscosity [mPa·s]
312.75 K	0.013	–	–
313.15 K	–	1044.2	83
317.55 K	0.008	–	–
318.15 K	–	–	64.8
318.25 K	–	1042.56	–
323.15 K	0.008	–	44.9
323.25 K	–	1040.96	–
328.15 K	0.013	–	39.9
328.35 K	–	1039.12	–
333.15 K	0.007	–	33
333.25 K	–	1037.41	–
338.15 K	0.017	–	27.2
338.45 K	–	1035.68	–
343.15 K	0.018	–	21.3
343.25 K	–	1034.09	–
348.15 K	0.006	–	18.8
348.55 K	–	1032.59	–
350.45 K	–	1032.09	–
353.15 K	0.008	1031.28	–
